Data published in PMC2908295 (Journal of medicinal chemistry, 2010).
Square brackets hold non-standard residues; d marks the D form. Peptide text beside a SMILES is read from it. * marks the point of attachment. X1 = C[C@@H](CCC[N+](C)(C)C)C(=O)*; Tle = CC(C)(C)[C@H](N)C(=O)O

Tests used:
[1] = tested on: male Sprague-Dawley rats; test: Hotplate model; assay type: in vivo, rat
[2] = tested on: male Sprague-Dawley rats; test: Acetic acid writhing model; assay type: in vivo; conditions: rat, i.v., 3% acetic acid i.p. 20 min after drug, n = 3 for all doses
[3] = tested on: rats; test: Chung model for neuropathic pain; assay type: in vivo; conditions: rat, single dose of 10 mg/kg i.p., n = 5
[4] = tested on: male Sprague-Dawley rats; test: Hypothermia assay; assay type: in vivo; conditions: rat
[5] = PK analysis by LC/MS; assay type: in vivo; conditions: rat, iv, 1 mg/kg
[6] = PK analysis by NTR-1 binding activity in plasma; assay type: in vivo; conditions: rat, i.v., NTR-1 radiolabel competition assay
[7] = rat hotplate, morphine 5 mg/kg i.p., n ≥ 6

Row | Compound | maximal response (% of MPE), morphine benchmark [1, 7] | time of return of response to baseline [1, 7] | time to reach 100% MPE [1, 7] | maximum response latency ([1]; rat hotplate, comparison with hydrolysis products, cut-off 30 s) | EC50 hotplate, i.m. ([1]; rat, i.m., assessed after 60 min, n = 3 for all doses) | EC50 hotplate, i.p. ([1]; rat, i.p., assessed after 60 min, n = 3 for all doses) | EC50 hotplate, i.v. ([1]; rat, i.v., assessed after 60 min, n = 3 for all doses) | EC50 hotplate, s.c. ([1]; rat, s.c., assessed after 60 min, n = 3 for all doses) | EC50 acetic acid writhing [2] | duration of maximal response, Chung model [3] | duration of drop in core body temperature ([4]; 10 mg/kg i.v., n ≥ 4) | EC50 hypothermia (area under the PD curves) ([4]; i.v., rectal temperature every 15 min for 4 h, n = 3 for all doses) | Tmax ([5]; in vivo) | half-life ([5]; plasma) | time until plasma NTR-1 binding returned to level of non-treated animals [6]
1 | CN1CC[C@]23c4c5ccc(O)c4O[C@H]2[C@@H](O)C=C[C@H]3[C@H]1C5 [morphine, reference compound] | 100% | ≤ 200 min | 15 to 30 min | – | – | – | – | – | – | – | – | – | – | – | –
2 | CC(C)C[C@H](NC(=O)[C@@H](NC(=O)[C@H](Cc1ccc(O)cc1)NC(=O)[C@@H]1CCCN1C(=O)[C@H](CCCNC(=N)N)NC(=O)[C@@H](C)CCC[N+](C)(C)C)C(C)(C)C)C(=O)O [Compound 1] (X1-RPY[Tle]L-OH; N-terminus assumed) | – | – | – | 30 s | 2.45 mg/kg | 2.00 mg/kg | 2.64 mg/kg | 3.84 mg/kg | 0.16 mg/kg | maintained for over one hour | > 4 h | 0.78 mg/kg | ≤ 5 min | 26.3 min | 60 min
